Laboratory results as given in patent US7642066B2, “High throughput pharmaceutical screening using drosophila” (Washington University, priority 2004, dated 2010).
Entries after “also recorded” stand apart in the source; their conditions may differ.

Experiments:
wild-type Drosophila [1] = test system: wild-type Drosophila; design: species or system Drosophila melanogaster; details: in vivo
Description: (§1) Into each well is pipetted 50-400 μl of either standard (control) or high glucose (experimental) Drosophila growth medium. A range of 50-400 μl is a balance between (1) providing sufficient food so as not to place undue feeding stress on the developing flies and (2) providing sufficient air space for the third larval instars to find sufficient wall space to pupate. Any one of several standard Drosophila growth medium recipes as known in the art of breeding Drosophila for research can be used. A known recipe for a standard growth medium includes, for example, water: 1 liter, cornmeal: 61 grams, yeast: 32 grams, agar: 9.3 grams, glucose: 129 grams (or molasses: 67 grams), methyl p-hydrobenzoate: 2.7 grams, and propionic acid: 0.05 liters. A high glucose growth medium is, for example, such a standard Drosophila growth medium supplemented with an additional 1 mole glucose. For example, to prepare a high glucose growth medium, an additional 180 grams of glucose is added to the recipe for standard growth medium as just described. Another embodiment, for example, of a standard growth medium is that prepared as follows: 1 gram agar, 8 grams brewers yeast, 2 grams yeast extract, 2 grams peptone, 3 grams sucrose, 6 grams glucose, 0.05 grams MgSO4×6H20, 0.05 grams CaCl2×2H20, 600 microliters propionic acid, 1 milliliter 10% p-Hydroxy-benzoic acid methyl ester in 95% ethanol, brought to 100 milliliters with water. A high glucose version of this medium is made, for example, by combining 75 milliliters of this medium with 25 milliliters of a 4 molar glucose solution in water.
Alternatively, the experimental growth medium is any growth medium containing an excess amount of a sugar or sugars selected from hexose sugars such as fructose, sorbitol, galactose and glucosamine, and from complex sugars such as sucrose, lactose or maltose.
The addition of 1 molar (1 M) glucose to the Drosophila growth media delayed pupariation, which reached significant levels at day 10 and high levels at day 11.
The developmental arrest can be screened as described in the Examples, infra. Glucose, for example, induces readily observable delays in pupariation as determined by the timing of significant eclosion, and peak eclosion. For example, control Drosophila embryos show significant eclosion beginning at day 8, while Drosophila embryos exposed to high glucose growth medium show significant eclosion beginning at day 11 (1 molar glucose). Similarly, peak eclosion is delayed, for example, from day 10 in controls, to day 12 (1 molar glucose). Thus, candidate compounds are screened by observing changes to the delay in significant eclosion and peak eclosion, as compared to the developmental delay induced by high glucose.
Accordingly, the ability of the hexose sugars fructose, sorbitol, galactose and glucosamine was tested by adding amounts of each sugar to the standard Drosophila growth medium. Fructose and sorbitol induced a 48-hour developmental delay at concentrations similar to those at which glucose induced developmental delay (data not shown).

wild-type Drosophila [2] = assay: Drosophila high throughput screen: effect of compound on glucose-mediated delay in pupariation; format: in vivo, Drosophila melanogaster; details: for significant levels of pupariation / high levels of pupariation: 1 M glucose, FIG. 2; for effect on glucose-mediated developmental delay / delay in pupariation: high glucose (1 M glucose in growth media)
Description: Accordingly, methods and related articles of composition for high throughput screening assays involve the preparation of microtiter plates each with multiple wells, wherein each well initially contains one or more wild type Drosophila embryos and an amount of a high glucose Drosophila growth medium. The embryos develop while feeding on the high glucose growth medium. The precise age of the embryos at the time they are plated matters less than the fact that they are all about the same age, to permit accurate evaluation of the possible effects of the candidate compound on larval development.
To prepare the microtiter plates, for example, 96-well microtiter plates are used, such as those commonly commercially available and typically used for various laboratory assay techniques, including other high throughput drug assay techniques. A suitable example is a Falcon #3912 flexible 96-well plate. However, other multiple-well microtiter plates can be used.
as §1
A candidate compound, or cocktail of more than one compound, that has been selected for screening is dissolved in EtOH or prepared in DMSO/Aqueous solution. In an exemplary embodiment, EtOH is used. Although DMSO can be used, it can be toxic if it reaches final concentrations of more than 0.3% of the growth medium. The compound in solution is added and allowed to diffuse through the growth medium for an initial period of about 16-24 hours. Wild type Drosophila embryos are collected en masse and, after the initial period of diffusion of the candidate compound through the growth medium, sorted several to a well. In an exemplary embodiment, five to twenty embryos are sorted to each well. However, the number of embryos in each well can easily vary, provided that no more embryos than will flourish in the well are used. The number of embryos per well will also be influenced by the need to obtain a sufficient number of data points to make the test meaningful.
Once the Drosophila embryos are placed into each well on the growth medium, they hatch out and begin feeding after a second period of about 24 hours, bringing the final amount of diffusion time for the subject compound to about 40-48 hours. A period of about 24-48 hours is sufficient for full diffusion of most compounds. […] Finally, each well is sealed with a sealing film such as “Aeraseal Sealing Film” (available from Sigma-Aldrich, St. Louis, Mo.; Sigma #A-9224). […]

[3] = 0.375 mg/ml of food, 1 molar glucose, FIG. 3
[4] = 0.75 mg/ml of food, 1 molar glucose, FIG. 3

Work on `O=C(CO)[C@@H](O)[C@H](O)[C@H](O)CO` [fructose] yielded a developmental delay induced (wild-type Drosophila [1]; Drosophila melanogaster) of 48 h.

In the case of `O=C[C@H](O)[C@@H](O)[C@@H](O)[C@H](O)CO` [galactose], the “concentration at which toxicity is demonstrated” value (wild-type Drosophila [1]; Drosophila melanogaster) is reported as 0.3 M.

For `N[C@H]1C(O)O[C@H](CO)[C@@H](O)[C@@H]1O` (stereo partly shown) [glucosamine], the “concentration inducing a developmental delay (as low as)” value (wild-type Drosophila [1]; Drosophila melanogaster) was 3000 µM, the “developmental delay with progressively higher levels” value (wild-type Drosophila [1]) was “progressively longer developmental delays” and the larval emergence (wild-type Drosophila [1]) was “most larvae failed to emerge”.

For `COc1ccc(Cl)cc1C(=O)NCCc1ccc(S(=O)(=O)NC(=O)NC2CCCCC2)cc1` [glyburide], the “significant levels of pupariation” value (wild-type Drosophila [2]; 0.25 mg per ml of growth media, no-drug 1 M glucose control approximately day 12) was 8 days, the “high levels of pupariation” value (wild-type Drosophila [2]; 0.25 mg per ml of growth media, no-drug 1 M glucose control day 13-14) was at most 10 days and the “high levels of pupariation” value (wild-type Drosophila [2]; 1 mg per ml of growth media) was 11 days. For the same molecule, the “significant levels of pupariation” value (wild-type Drosophila [2]; 1 mg per ml of growth media) was 11 days and the “effect on glucose-mediated developmental delay / delay in pupariation” value (wild-type Drosophila [2]) was “demonstrated an ability to ameliorate glucose-mediated developmental delay; also recorded: reduced glucose-mediated delay in pupariation”.

In the case of `CC(C)[C@H]1CC[C@H](C(=O)N[C@H](Cc2ccccc2)C(=O)O)CC1` [nateglinide], the “effect on rate of development” value (wild-type Drosophila [2]; [3]) is reported as “partially restored the rate of development”, the “pupariation high rates beginning” value (wild-type Drosophila [2]; [3]) is reported as 9 days and the “effect on rate of development” value (wild-type Drosophila [2]; [4]) is reported as “intermediate result”. The “pupariation high levels beginning” value (wild-type Drosophila [2]; [4]) was 9 days and the “effect on glucose-mediated developmental delay / delay in pupariation” value (wild-type Drosophila [2]) was “demonstrated an ability to ameliorate glucose-mediated developmental delay”.

`OC[C@@H](O)[C@@H](O)[C@H](O)[C@@H](O)CO` [sorbitol] gave a developmental delay induced (wild-type Drosophila [1]; Drosophila melanogaster) of 48 h.
